ChEMBL document CHEMBL4033708, “Synthesis and molecular docking study of some 5,6-dichloro-2-cyclopropyl-1H-benzimidazole derivatives bearing triazole, oxadiazole, and imine functionalities as potent inhibitors of urease” (Bioorg Med Chem Lett, 2017)

The compounds below were run against Urease (Canavalia ensiformis, UniProt P07374) (assay: Inhibition of jack bean urease using urea as substrate pretreated for 15 mins followed by substrate addition by phenol red based spectrophotometric method).
Urease, sequence (P07374 whole entry): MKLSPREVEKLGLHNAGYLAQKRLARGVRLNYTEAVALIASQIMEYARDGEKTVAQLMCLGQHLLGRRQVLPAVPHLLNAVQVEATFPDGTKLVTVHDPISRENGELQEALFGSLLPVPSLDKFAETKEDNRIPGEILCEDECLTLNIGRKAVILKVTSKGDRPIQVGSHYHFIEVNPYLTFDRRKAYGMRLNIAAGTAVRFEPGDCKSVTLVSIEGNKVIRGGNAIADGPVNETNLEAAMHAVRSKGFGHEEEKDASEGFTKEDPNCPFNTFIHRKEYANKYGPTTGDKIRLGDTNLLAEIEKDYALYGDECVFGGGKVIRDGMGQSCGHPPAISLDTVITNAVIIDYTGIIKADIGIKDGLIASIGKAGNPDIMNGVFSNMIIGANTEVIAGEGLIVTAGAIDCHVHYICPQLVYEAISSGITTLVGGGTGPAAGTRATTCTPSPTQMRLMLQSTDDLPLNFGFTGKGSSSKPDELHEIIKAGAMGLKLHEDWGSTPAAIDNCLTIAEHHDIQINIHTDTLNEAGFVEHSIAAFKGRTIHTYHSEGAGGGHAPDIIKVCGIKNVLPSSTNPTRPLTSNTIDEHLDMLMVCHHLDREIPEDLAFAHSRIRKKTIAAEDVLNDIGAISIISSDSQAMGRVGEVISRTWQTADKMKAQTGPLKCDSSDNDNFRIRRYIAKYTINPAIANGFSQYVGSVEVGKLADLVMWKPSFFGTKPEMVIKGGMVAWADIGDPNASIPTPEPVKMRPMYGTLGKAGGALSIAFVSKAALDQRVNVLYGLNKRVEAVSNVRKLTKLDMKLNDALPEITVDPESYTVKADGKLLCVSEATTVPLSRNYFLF

SMILES | IC50 [nM]
O=C(Cn1c(C2CC2)nc2cc(Cl)c(Cl)cc21)N/N=C/c1ccccc1O | 220
O=C(Cn1c(C2CC2)nc2cc(Cl)c(Cl)cc21)N/N=C/c1ccc(F)c(Br)c1 | 60
O=C(Cn1c(C2CC2)nc2cc(Cl)c(Cl)cc21)N/N=C/c1ccccc1 | 2070
COC(=O)Cn1c(C2CC2)nc2cc(Cl)c(Cl)cc21 | 1120
O=C(Cn1c(C2CC2)nc2cc(Cl)c(Cl)cc21)N/N=C/c1cc(Br)ccc1O | 140
Sc1nnc(Cn2c(C3CC3)nc3cc(Cl)c(Cl)cc32)o1 | 1340
CCn1c(S)nnc1Cn1c(C2CC2)nc2cc(Cl)c(Cl)cc21 | 380
O=C(Cn1c(C2CC2)nc2cc(Cl)c(Cl)cc21)N/N=C/c1ccc(Cl)cc1 | 290
Clc1cc2nc(C3CC3)[nH]c2cc1Cl | 170
NNC(=O)Cn1c(C2CC2)nc2cc(Cl)c(Cl)cc21 | 1920
O=C(Cn1c(C2CC2)nc2cc(Cl)c(Cl)cc21)N/N=C/c1cc(Cl)ccc1O | 150
CCNC(=S)NNC(=O)Cn1c(C2CC2)nc2cc(Cl)c(Cl)cc21 | 280
CN(C)c1ccc(/C=N/NC(=O)Cn2c(C3CC3)nc3cc(Cl)c(Cl)cc32)cc1 | 1490
Cn1c(S)nnc1Cn1c(C2CC2)nc2cc(Cl)c(Cl)cc21 | 170
NC(N)=S [THIOUREA] | 560
CNC(=S)NNC(=O)Cn1c(C2CC2)nc2cc(Cl)c(Cl)cc21 | 50 to 60
